Source: ChEMBL document CHEMBL1201862, “PubChem BioAssay data set” (2004)
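1) Cells in 96-well plates. 2) Compound, 48 h, 5 concentrations. 3) Linear interpolation between surrounding doses. 4) Unreached endpoint = highest concentration. GI50 = concentration required for 50% inhibition of growth.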 The source made the active and inactive calls. Rule as the data show it: active = GI50 up to about 1.1 µM and inactive = higher.

Columns and labels:
Test in all cases: DTP human tumour cell line panel, 48 h
786-0 = system: 786-0
A498 = system: A498
A549 = system: A549
ACHN = system: ACHN
CAKI-1 = system: CAKI-1
CCRF-CEM = system: CCRF-CEM
COLO 205 = system: COLO 205
DLD-1 = system: DLD-1
DMS-114 = system: DMS-114
DMS-273 = system: DMS-273
EKVX = system: EKVX
HCC 2998 = system: HCC 2998
HCT-116 = system: HCT-116
HCT-15 = system: HCT-15
HOP-18 = system: HOP-18
HOP-62 = system: HOP-62
HOP-92 = system: HOP-92
IGROV-1 = system: IGROV-1
K562 = system: K562
KM-20L2 = system: KM-20L2
KM12 = system: KM12
LOX IMVI = system: LOX IMVI
LXFL 529 = system: LXFL 529
M14 = system: M14
M19-MEL = system: M19-MEL
MOLT-4 = system: MOLT-4
Malme-3M = system: Malme-3M
NCI-H226 = system: NCI-H226
NCI-H23 = system: NCI-H23
NCI-H460 = system: NCI-H460
NCI-H522 = system: NCI-H522
OVCAR-3 = system: OVCAR-3
OVCAR-4 = system: OVCAR-4
OVCAR-5 = system: OVCAR-5
OVCAR-8 = system: OVCAR-8
RXF 393 = system: RXF 393
RXF 631 = system: RXF 631
SF-268 = system: SF-268
SF-295 = system: SF-295
SF-539 = system: SF-539
SK-MEL-28 = system: SK-MEL-28
SK-MEL-2 = system: SK-MEL-2
SK-MEL-5 = system: SK-MEL-5
SK-OV-3 = system: SK-OV-3
SN12C = system: SN12C
SNB-19 = system: SNB-19
SNB-75 = system: SNB-75
SNB-78 = system: SNB-78
SR = system: SR
SW-620 = system: SW-620
TK-10 = system: TK-10
U-251 = system: U-251
UACC-257 = system: UACC-257
UACC-62 = system: UACC-62
UO-31 = system: UO-31
XF498 = system: XF498
HL-60 = system: HL-60

Measured: GI50

COc1ccc2nc3cc(Cl)ccc3c(Sc3ccccc3[N+](=O)[O-])c2c1
inactive: 786-0 75.3 µM | A498 > 100 µM | A549 > 100 µM | ACHN > 100 µM | CAKI-1 > 100 µM | CCRF-CEM > 100 µM | COLO 205 17.3 µM | DLD-1 > 100 µM | DMS-114 > 100 µM | DMS-273 > 100 µM | EKVX > 100 µM | HCC 2998 > 100 µM | HCT-116 > 100 µM | HOP-18 > 100 µM | HOP-62 69 µM | HOP-92 90.2 µM | IGROV-1 > 100 µM | K562 > 100 µM | KM-20L2 > 100 µM | KM12 > 100 µM | LOX IMVI > 100 µM | LXFL 529 > 100 µM | M14 > 100 µM | M19-MEL > 100 µM | MOLT-4 > 100 µM | Malme-3M > 100 µM | NCI-H226 17.7 µM | NCI-H23 > 100 µM | NCI-H460 > 100 µM | NCI-H522 > 100 µM | OVCAR-3 > 100 µM | OVCAR-4 > 100 µM | OVCAR-5 > 100 µM | OVCAR-8 > 100 µM | RXF 393 49.5 µM | RXF 631 43.9 µM | SF-268 > 100 µM | SF-295 > 100 µM | SF-539 58.1 µM | SK-MEL-28 > 100 µM | SK-MEL-2 > 100 µM | SK-MEL-5 > 100 µM | SK-OV-3 58.1 µM | SN12C 28.1 µM | SNB-19 > 100 µM | SNB-75 16.9 µM | SNB-78 41.2 µM | SR > 100 µM | SW-620 > 100 µM | TK-10 81.8 µM | U-251 > 100 µM | UACC-257 > 100 µM | UACC-62 > 100 µM | UO-31 > 100 µM | XF498 29.4 µM
> 100 µM: HCT-15

O=c1c(O)c(-c2ccc(O)c(O)c2)oc2cc(O)cc(O)c12 [QUERCETIN]
inactive: 786-0 59.8 µM | A498 > 100 µM | A549 > 100 µM | ACHN > 100 µM | CAKI-1 > 100 µM | CCRF-CEM 30.8 µM | COLO 205 33.6 µM | DLD-1 37.2 µM | DMS-114 36.5 µM | DMS-273 49.7 µM | EKVX 41.2 µM | HCC 2998 > 100 µM | HCT-116 46.1 µM | HL-60 21 µM | HOP-18 > 100 µM | HOP-62 46.1 µM | IGROV-1 59.3 µM | K562 67.8 µM | KM-20L2 83.6 µM | KM12 42.9 µM | LOX IMVI 18.9 µM | LXFL 529 > 100 µM | M14 > 100 µM | M19-MEL 77.8 µM | MOLT-4 76.9 µM | Malme-3M > 100 µM | NCI-H460 36.6 µM | NCI-H522 84.3 µM | OVCAR-3 > 100 µM | OVCAR-4 > 100 µM | OVCAR-5 > 100 µM | OVCAR-8 72.6 µM | RXF 393 55.7 µM | RXF 631 38.1 µM | SF-268 46.7 µM | SF-295 50.7 µM | SF-539 47.5 µM | SK-MEL-28 94.6 µM | SK-MEL-2 88.5 µM | SK-MEL-5 92 µM | SK-OV-3 52.7 µM | SN12C > 100 µM | SNB-19 61.2 µM | SNB-75 49 µM | SNB-78 > 100 µM | SR 35.5 µM | SW-620 20.3 µM | TK-10 > 100 µM | U-251 49.7 µM | UACC-257 > 100 µM | UACC-62 31.2 µM | UO-31 77.1 µM | XF498 72.8 µM
36.8 µM: HCT-15
